Key:
Assay in all cases: TMT LC-MSMS of 11-labelled proteins
Assay type in all cases: cell-based
[1] = target: 60 kDa heat shock protein, mitochondrial (HSPD1) (Homo sapiens, UniProt P10809)
[2] = target: Isoform 2 of Elongation factor 1-gamma (EEF1G) (Homo sapiens, UniProt P26641); settings: SKBR3 cells; for Abundance Ratio: (11) / (DMSO): 11 0.5 µM 3 h vs DMSO; for Abundance Ratio: (11) / (11 with PU-H71): 11 0.5 µM 3 h vs with PU-H71 10 µM
[3] = target: T1, Isoform 2 of Calcium-binding mitochondrial carrier protein Aralar2 (SLC25A13) (Homo sapiens, UniProt Q9UJS0)
T1 sequence (Q9UJS0 2-676 isoform Q9UJS0-2): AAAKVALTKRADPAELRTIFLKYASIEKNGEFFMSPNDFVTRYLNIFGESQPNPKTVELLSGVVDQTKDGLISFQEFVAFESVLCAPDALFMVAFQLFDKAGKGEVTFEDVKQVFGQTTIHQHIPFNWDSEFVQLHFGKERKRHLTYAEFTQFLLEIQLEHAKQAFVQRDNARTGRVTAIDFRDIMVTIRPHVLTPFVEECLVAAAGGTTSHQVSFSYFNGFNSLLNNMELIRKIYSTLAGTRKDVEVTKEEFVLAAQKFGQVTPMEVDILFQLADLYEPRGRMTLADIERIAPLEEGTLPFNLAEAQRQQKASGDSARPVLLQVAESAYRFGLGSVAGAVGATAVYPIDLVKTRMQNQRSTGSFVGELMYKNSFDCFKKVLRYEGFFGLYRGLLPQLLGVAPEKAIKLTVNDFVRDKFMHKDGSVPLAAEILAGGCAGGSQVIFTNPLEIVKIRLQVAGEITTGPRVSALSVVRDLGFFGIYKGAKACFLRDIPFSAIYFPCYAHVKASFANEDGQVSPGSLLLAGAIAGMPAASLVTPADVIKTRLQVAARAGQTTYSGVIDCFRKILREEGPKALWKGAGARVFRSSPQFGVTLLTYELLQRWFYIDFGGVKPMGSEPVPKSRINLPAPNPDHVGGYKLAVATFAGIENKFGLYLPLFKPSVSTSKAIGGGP

[4] = target: glyceraldehyde-3-phosphate dehydrogenase (GAPDH) (Homo sapiens, UniProt P04406)
[5] = sheet Merged, SKBR3 cells, 11 0.5 µM 3 h vs DMSO
[6] = sheet Merged, SKBR3 cells, 11 0.5 µM 3 h vs with PU-H71 10 µM

Sequence of Isoform 2 of Elongation factor 1-gamma (EEF1G) (P26641 5-437 limits assumed): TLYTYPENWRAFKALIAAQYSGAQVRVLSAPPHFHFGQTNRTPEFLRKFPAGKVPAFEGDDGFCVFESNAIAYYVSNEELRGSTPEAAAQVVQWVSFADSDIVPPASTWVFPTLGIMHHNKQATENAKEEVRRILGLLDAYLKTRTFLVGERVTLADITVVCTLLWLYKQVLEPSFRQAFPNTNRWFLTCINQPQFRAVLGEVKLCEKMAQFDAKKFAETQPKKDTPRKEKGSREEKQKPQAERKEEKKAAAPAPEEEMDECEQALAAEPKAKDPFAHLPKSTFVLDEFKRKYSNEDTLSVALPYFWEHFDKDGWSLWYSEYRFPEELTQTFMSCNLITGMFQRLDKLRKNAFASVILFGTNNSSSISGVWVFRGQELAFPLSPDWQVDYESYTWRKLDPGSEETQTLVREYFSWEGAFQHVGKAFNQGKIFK
Sequence of 60 kDa heat shock protein, mitochondrial (HSPD1) (P10809 27-573): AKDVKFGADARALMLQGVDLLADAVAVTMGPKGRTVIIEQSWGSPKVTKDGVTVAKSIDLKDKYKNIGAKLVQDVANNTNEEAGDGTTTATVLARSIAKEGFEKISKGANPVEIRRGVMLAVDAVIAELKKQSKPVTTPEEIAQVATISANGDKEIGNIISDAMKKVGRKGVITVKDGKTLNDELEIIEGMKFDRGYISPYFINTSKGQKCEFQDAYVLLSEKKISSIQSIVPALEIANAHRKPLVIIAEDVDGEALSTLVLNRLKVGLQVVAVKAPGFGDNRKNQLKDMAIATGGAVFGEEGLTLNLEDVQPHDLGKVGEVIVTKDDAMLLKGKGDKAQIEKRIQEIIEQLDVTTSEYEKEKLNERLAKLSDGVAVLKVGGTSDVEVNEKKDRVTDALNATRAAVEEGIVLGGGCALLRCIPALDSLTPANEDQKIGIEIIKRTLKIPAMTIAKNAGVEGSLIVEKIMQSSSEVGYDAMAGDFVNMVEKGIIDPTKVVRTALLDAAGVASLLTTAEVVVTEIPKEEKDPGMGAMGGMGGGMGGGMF
Sequence of glyceraldehyde-3-phosphate dehydrogenase (GAPDH) (P04406 whole entry): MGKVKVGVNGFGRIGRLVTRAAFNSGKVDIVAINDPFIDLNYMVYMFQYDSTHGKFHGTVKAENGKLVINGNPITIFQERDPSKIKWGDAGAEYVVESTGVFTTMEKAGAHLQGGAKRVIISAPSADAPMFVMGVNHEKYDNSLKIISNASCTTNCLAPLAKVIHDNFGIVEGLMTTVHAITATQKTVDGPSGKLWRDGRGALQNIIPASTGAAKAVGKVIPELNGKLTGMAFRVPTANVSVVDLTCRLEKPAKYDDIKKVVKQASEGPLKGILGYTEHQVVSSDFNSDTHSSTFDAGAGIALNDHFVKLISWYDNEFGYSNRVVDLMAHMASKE

For `CC(=O)Oc1ccc2c(c1)Oc1cc(OC(C)=O)ccc1C21OC(=O)c2cc(C(=O)NCCOCCOCCNC(=O)CCCC(=O)N(CC#N)S(=O)(=O)c3ccc(C(=O)NCCCn4c(Sc5cc6c(cc5I)OCO6)nc5c(N)ncnc54)cc3)ccc21` [compound 11], the “Abundance Ratio: (11) / (11 with PU-H71)” value ([1]; Exp3, HSPD1) was 0.857, the “Abundance Ratio: (11) / (DMSO)” value ([1]; Exp3, HSPD1) was 2.057 and the “Abundances (Grouped): 11” value ([1]; Exp3, HSPD1) was 57.6. The “Abundances (Grouped): 11 with PU-H71” value ([1]; Exp3, HSPD1) was 67.2, the “Abundance Ratio: (11) / (11 with PU-H71)” value ([1]; sheet Exp2, HSPD1) was 1.035 and the “Abundance Ratio: (11) / (DMSO)” value ([1]; sheet Exp2, HSPD1) was 2.527. The “Abundances (Grouped): 11” value ([1]; sheet Exp2, HSPD1) was 61.4, the “Abundances (Grouped): 11 with PU-H71” value ([1]; sheet Exp2, HSPD1) was 59.3 and the “Abundance Ratio: (11) / (DMSO)” value [1, 5] was 2.28. For the same compound, the “Abundance Ratio: (11) / (11 with PU-H71)” value [1, 6] was 0.942, the “Abundance Ratio: (11) / (DMSO)” value ([2]; sheet Exp1) was 4.152 and the “Abundance Ratio: (11) / (11 with PU-H71)” value ([2]; sheet Exp1) was 0.818. For the same compound, the “Abundance Ratio: (11) / (DMSO)” value ([2]; sheet Merged) was 1.23, the “Abundance Ratio: (11) / (11 with PU-H71)” value ([2]; sheet Merged) was 0.746 and the “Abundance Ratio: (11) / (11 with PU-H71)” value ([3]; sheet Exp2, SLC25A13) was 0.894. For the same compound, the “Abundance Ratio: (11) / (DMSO)” value ([3]; sheet Exp2, SLC25A13) was 2.324, the “Abundances (Grouped): 11” value ([3]; sheet Exp2, SLC25A13) was 24.4 and the “Abundances (Grouped): 11 with PU-H71” value ([3]; sheet Exp2, SLC25A13, with PU-H71) was 27.3. For the same compound, the “Abundance Ratio: (11) / (DMSO)” value [3, 5] was 2.324, the “Abundance Ratio: (11) / (11 with PU-H71)” value [3, 6] was 0.894 and the “Abundance Ratio: (11) / (11 with PU-H71)” value ([4]; Exp3, GAPDH) was 0.73. For the same compound, the “Abundance Ratio: (11) / (DMSO)” value ([4]; Exp3, GAPDH) was 1.944, the “Abundances (Grouped): 11” value ([4]; Exp3, GAPDH) was 248.2 and the “Abundances (Grouped): 11 with PU-H71” value ([4]; Exp3, GAPDH) was 340. The “Abundance Ratio: (11) / (DMSO)” value ([4]; sheet Exp1, SKBR3 cells, 11 0.5 µM 3 h vs DMSO) was 2.11, the “Abundance Ratio: (11) / (11 with PU-H71)” value ([4]; sheet Exp1, SKBR3 cells, 11 0.5 µM 3 h vs with PU-H71 10 µM) was 0.674 and the “Abundance Ratio: (11) / (11 with PU-H71)” value ([4]; sheet Exp2, GAPDH) was 0.789. The “Abundance Ratio: (11) / (DMSO)” value ([4]; sheet Exp2, GAPDH) was 3.189, the “Abundances (Grouped): 11” value ([4]; sheet Exp2, GAPDH) was 133 and the “Abundances (Grouped): 11 with PU-H71” value ([4]; sheet Exp2, GAPDH) was 168.6. For the same compound, the “Abundance Ratio: (11) / (DMSO)” value [4, 5] was 2.267 and the “Abundance Ratio: (11) / (11 with PU-H71)” value [4, 6] was 0.732.

From PMC5951806, “Rapid labelling and covalent inhibition of intracellular native proteins using ligand-directed N-acyl-N-alkyl sulfonamide” (Nature Communications, 2018)
